Where two headings read alike, the source gives them in different places. A value given as a limit tells only on which side of the number the result lay.

As a reminder, the IC50 is the concentration needed to halve the response being measured. For orientation: inhibition means the drop in the measured response relative to a control, in per cent.

The target of assay [1] is T1, JAK1 (Homo sapiens, UniProt P23458).
T1 construct: purchased Millipore Upstate KinaseProfiler
In words: Millipore Upstate KinaseProfiler screening, JAK1 catalytic activity. It counts as biochemical. To be noted: Table 5; read-out: Inhibition (IC50%) of catalytic activity of JAK 1.

For assay [2], the target named is T2, JAK2 (Homo sapiens, UniProt O60674).
T2 construct: purchased Millipore Upstate KinaseProfiler
In words: Millipore Upstate KinaseProfiler screening, JAK2 catalytic activity. The class given is biochemical. To be noted: Table 5; read-out: Inhibition (IC50%) of catalytic activity of JAK 2.

For assay [3], the target named is T3, Purified human JAK3 (Homo sapiens, UniProt P52333).
T3 construct: purchased Millipore Upstate KinaseProfiler; host or cells: insect cells
Kind of assay: Millipore Upstate KinaseProfiler screening, JAK3 catalytic activity. It counts as biochemical. As to conditions: for IC50: Table 5, read-out: Inhibition (IC50%) of catalytic activity of JAK 3; for inhibition at 0.3 µM: 0.3 μM compound. The method, then:
This assay is a direct measurement of the effect of compound on the catalytic activity of JAK3. Purified human JAK3 (GenBank AF513860) sequence (residue 781-C terminus) was obtained from insect cells. The catalytic hydrolysis of ATP is measured using a radiometric filter binding method. Incubation of kinase with ^33-[P]ATP and substrate leads to incorporation of ^33[P] into the substrate which can then be separated from the other reaction components by filtration. Assays were performed using 10 μM ATP and in the absence or presence of 1, 0.3, or 0.1 μM compound. Activity was expressed as % of inhibition of control.
In the table below, activity in the Jak assays is provided as follows: +++++=IC50<0.0010 μM; ++++=0.0010 μM<IC50<0.010 μM, +++=0.010 μM<IC50<0.10 μM, ++=0.10 μM<IC50<1 μM, +=IC50>1 μM.

Assay [4] concerns SUDHL-6 and Toledo cells. In words: Caspase 3 apoptosis assay. The class given is cell-based, human. To be noted: 1 μM, 72 h treatment. The method, then:
Induction of apoptosis in non-Hodgkin's lymphoma B cell lines SUDHL-4, SUDHL-6, and Toledo was assessed by measuring the apoptotis marker Caspase 3. Cells were incubated with 1, 3, or 10 μM compound for 24, 48, and 72 hours. At the conclusion of each time point, cells were processed for flow cytometry analysis using the Monoclonal Rabbit Anti-Active Caspase-3 Antibody Kit and related protocols (BD Pharmingen). Data from two independent experiments are presented in Tables 5A and 5B, representing the percent of total cells undergoing apoptosis following incubation with compounds under the indicated conditions.
Induction of apoptosis was measured using the PE-conjugated monoclonal active caspase-3 antibody apoptosis kit (Becton Dickenson) following the supplied protocol. Cells were suspended in growth media (0.5×10^6 cells/ml) and treated with the indicated concentrations of each Syk inhibitor or vehicle control for 24, 48, or 72 hours prior to FACS analysis. The MTT (3-(4,5-Dimethylthiazol-2-yl)-2,5-diphenyltetrazolium bromide, a tetrazole) assay […] was used as a measure of cell viability and growth, following protocols supplied by the manufacturer. Cells were treated with the indicated concentrations of each Syk inhibitor or vehicle control for 72 hours.
Selective inhibition of Syk was sufficient to induce apoptosis in “BCR-type” NHL cell lines.

The target of assay [5] is T4, full length active recombinant SYK enzyme (Homo sapiens, UniProt P43405).
T4 construct: full length active recombinant SYK enzyme (Millipore, Calif.); purchased Millipore
In words: Inhibition of Syk tyrosine phosphorylation activity (LANCE TR-FRET). It counts as biochemical. To be noted: 1 nM SYK, 100 μM ATP. In a few lines:
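The reaction is quenched with buffer holding Eu-anti-phosphotyrosine and streptavidin-APC, and detection runs 1 hr at room temperature. TR-FRET is read and IC50s come from non-linear regression.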
For orientation: Time-resolved FRET reads energy transfer from a long-lived donor to a nearby acceptor.

Assay [6] deals with human platelet-rich plasma (PRP). In words: Inhibition of Convulxin-mediated platelet aggregation in vitro (PRP). The class given is cell-based. As to conditions: Table 4, Convulxin-induced aggregation in human PRP, unit inferred. The method, then: The ability for candidate molecules to inhibit syk-mediated platelet functions are tested by measuring the inhibition the GPVI-specific agonist Convulxin-induced human platelet calcium-mobilization or aggregation. Calcium-mobilization is assessed in human washed platelets in a 96-well microtiter format.
Inhibition of Convulxin-Mediated Platelet Aggregation In Vitro
Platelet-rich plasma (PRP) is prepared by centrifugation of whole blood at 160×g for 20 minutes at room temperature. The PRP layer is removed, transferred to a new tube, and the platelet count is adjusted, if advantageous, to achieve a platelet concentration of ˜3×10^8 platelets/ml using platelet-poor plasma (PPP). PPP is prepared by centrifugation of the remaining blood sample (after removal of PRP) for 20 minutes at 800×g. This preparation of PRP can subsequently be used for aggregation assays in either a 96-well plate or standard cuvette aggregometry.
Inhibition of Convulxin-induced aggregation is determined in 96-well flat-bottom microtiter plates using a microtiter plate shaker and plate reader similar to the procedure described by Frantantoni et al., Am. J. Clin. Pathol. […] All steps are performed at room temperature. For 96-well plate aggregation using platelet-rich plasma (PRP), the total reaction volume of 0.2 ml/well includes 190 μl of PRP (˜3×10^8 platelets/ml, see above), and 5 μl of either serial dilution of test compounds in 30% DMSO or buffer (for control wells). After 20 minutes preincubation at room temperature 5 μl of 320 ng/ml Convulxin agonist solution is added to each well to give a final concentration of 8 ng/ml Convulxin. The plates are then agitated for 5 min on a microtiter plate shaker and the 5 minute reading is obtained in the microtitre plate reader (Softmax, Molecular Devices, Menlo Park, Calif.). Aggregation is calculated from the decrease of OD at 650 nm at t=5 minutes. IC50s were derived by non-linear regression analysis.
Inhibition of Convulxin-induced aggregation was also determined for cuvette light transmittance aggregation assays, serial dilutions (1:2) of test compounds were prepared in 30% DMSO in a 96 well V-bottom plate (final DMSO concentration in the cuvette was 0.3%). […] IC50s were derived by non-linear regression analysis.

Assay [7] relates to SUDHL-4 and SUDHL-6 cells. As to conditions: Chen, Monti et al. 2008; cited from earlier work.
For assay [8], the system named is Toledo and Karpas-422 cell lines. To be noted: Chen, Monti et al. 2008; cited from earlier work.
[9] abbreviates: Table 3, read-out: Syk IC50 code.

T1 sequence (P23458 whole entry): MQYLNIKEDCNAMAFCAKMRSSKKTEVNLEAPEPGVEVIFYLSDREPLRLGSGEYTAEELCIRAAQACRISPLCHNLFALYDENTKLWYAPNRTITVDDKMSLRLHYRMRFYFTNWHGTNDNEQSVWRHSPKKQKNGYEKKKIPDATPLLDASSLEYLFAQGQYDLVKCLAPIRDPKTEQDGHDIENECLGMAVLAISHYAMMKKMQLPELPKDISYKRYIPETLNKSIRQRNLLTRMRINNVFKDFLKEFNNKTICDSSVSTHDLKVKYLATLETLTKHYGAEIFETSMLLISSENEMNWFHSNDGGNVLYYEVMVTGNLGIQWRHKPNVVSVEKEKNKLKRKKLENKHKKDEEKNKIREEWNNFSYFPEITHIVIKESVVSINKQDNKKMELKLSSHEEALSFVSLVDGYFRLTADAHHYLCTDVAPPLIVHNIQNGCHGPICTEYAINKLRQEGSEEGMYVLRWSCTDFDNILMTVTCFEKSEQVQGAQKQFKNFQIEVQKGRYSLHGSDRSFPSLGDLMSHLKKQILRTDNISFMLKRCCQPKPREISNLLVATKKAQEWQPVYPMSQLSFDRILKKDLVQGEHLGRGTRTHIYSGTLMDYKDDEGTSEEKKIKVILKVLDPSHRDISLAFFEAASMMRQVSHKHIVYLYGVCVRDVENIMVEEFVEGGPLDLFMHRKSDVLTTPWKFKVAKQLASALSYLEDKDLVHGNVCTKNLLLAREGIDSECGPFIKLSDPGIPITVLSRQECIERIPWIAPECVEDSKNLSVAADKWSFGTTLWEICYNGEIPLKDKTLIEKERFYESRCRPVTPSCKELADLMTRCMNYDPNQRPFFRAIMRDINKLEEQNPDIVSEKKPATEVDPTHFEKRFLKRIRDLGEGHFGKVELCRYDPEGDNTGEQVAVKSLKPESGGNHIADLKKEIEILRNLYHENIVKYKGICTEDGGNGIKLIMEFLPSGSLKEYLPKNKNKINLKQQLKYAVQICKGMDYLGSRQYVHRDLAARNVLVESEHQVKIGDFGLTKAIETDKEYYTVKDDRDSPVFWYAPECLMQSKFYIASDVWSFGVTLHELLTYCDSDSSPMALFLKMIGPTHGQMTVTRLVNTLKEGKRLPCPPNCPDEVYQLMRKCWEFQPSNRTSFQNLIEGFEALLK
T3 sequence (P52333 781-1124 limits assumed): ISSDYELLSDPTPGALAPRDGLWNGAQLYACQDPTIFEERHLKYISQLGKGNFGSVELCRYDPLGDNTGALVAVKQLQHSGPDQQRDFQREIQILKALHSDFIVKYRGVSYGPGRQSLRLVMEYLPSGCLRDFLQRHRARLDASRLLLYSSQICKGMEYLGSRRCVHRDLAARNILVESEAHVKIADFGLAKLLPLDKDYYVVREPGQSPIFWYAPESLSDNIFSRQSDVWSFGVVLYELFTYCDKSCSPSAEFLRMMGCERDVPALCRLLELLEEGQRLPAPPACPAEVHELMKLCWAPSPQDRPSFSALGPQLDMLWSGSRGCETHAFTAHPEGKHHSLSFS
T2 sequence (O60674 whole entry): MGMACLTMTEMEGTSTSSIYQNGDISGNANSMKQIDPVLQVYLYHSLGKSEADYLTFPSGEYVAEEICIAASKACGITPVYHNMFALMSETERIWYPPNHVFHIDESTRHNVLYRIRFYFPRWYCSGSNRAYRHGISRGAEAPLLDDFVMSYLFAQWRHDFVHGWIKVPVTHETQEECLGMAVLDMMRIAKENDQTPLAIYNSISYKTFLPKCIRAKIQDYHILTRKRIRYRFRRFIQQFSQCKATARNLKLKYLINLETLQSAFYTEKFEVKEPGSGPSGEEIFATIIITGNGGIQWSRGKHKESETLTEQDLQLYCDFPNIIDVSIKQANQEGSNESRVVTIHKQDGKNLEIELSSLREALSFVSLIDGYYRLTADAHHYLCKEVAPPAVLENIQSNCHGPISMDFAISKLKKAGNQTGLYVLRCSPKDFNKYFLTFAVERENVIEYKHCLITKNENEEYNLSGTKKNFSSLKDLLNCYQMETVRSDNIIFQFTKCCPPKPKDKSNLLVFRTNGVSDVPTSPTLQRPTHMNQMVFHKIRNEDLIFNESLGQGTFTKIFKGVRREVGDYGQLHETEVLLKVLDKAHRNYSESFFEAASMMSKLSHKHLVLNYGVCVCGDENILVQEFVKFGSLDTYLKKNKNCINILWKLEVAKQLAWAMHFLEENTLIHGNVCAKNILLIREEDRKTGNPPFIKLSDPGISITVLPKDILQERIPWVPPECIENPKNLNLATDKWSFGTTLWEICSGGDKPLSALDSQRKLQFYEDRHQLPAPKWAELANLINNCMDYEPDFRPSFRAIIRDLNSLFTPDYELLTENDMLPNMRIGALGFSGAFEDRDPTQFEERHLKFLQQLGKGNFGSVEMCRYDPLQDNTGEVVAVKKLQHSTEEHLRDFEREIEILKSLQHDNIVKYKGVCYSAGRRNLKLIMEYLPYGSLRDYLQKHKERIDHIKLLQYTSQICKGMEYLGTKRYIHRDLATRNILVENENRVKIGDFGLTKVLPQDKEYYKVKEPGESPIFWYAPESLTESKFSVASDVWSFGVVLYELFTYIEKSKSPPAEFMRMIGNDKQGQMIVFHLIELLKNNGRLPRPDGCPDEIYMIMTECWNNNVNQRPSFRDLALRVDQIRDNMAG

As for `CS(=O)(=O)N1CCN(c2ccc(Nc3nc(Nc4cccc(S(N)(=O)=O)c4)c4cc[nH]c4n3)cc2)CC1`, the IC50 in assay [1] was above 1000 nM; in assay [2], 100 to 1000 nM; in assay [3] it was 100 to 1000 nM.
For `CN(C)C(=O)C1CCN(c2ccc(Nc3nc(NC4CC4)c4cc[nH]c4n3)cc2)CC1`, the inhibition at 0.3 µM in assay [3] (10 μM ATP) came out at 82%.
With `N#Cc1c[nH]c2nc(Nc3ccc4c(c3)CCC(=O)N4)nc(NC3CC3)c12` [drawing 209], the IC50 in assay [1], in assay [2] and in assay [3] was 10 to 100 nM each time.
Regarding `CCCCCCCCCCCCCC(=O)O[C@@H]1[C@@H](C)[C@@]2(O)[C@@H](C=C(CO)C[C@]3(O)C(=O)C(C)=C[C@@H]23)[C@@H]2C(C)(C)[C@]12OC(C)=O` [PMA], the Induction of apoptosis entry in assay [4] is reported as “equally sensitive to induction of apoptosis”.
As to `CC(=O)N1CCN(c2ccc(Nc3nc(N4CCC(CN)CC4)c4cc[nH]c4n3)cc2)CC1` [drawing 208], the IC50 in assay [1], in assay [2] and in assay [3] was 100 to 1000 nM each time.
For the compound `CC(=O)c1c[nH]c2nc(Nc3ccc4cn[nH]c4c3)nc(NC3CC3)c12` [drawing 207], the IC50 in assay [1], in assay [2] and in assay [3] was above 1000 nM each time.
Regarding `CC(=O)N1CCN(c2ccc(Nc3nc(N4CCC(CN)CC4)c4nc[nH]c4n3)cc2)CC1` [Example 15, 1-(4-(4-(6-(4-(aminomethyl)piperidin-1-yl)-9H-purin-2-ylamino)phenyl)piperazin-1-yl)ethanone], the IC50 in assay [5] (setting [9]) is 10 to 100 nM; in assay [5] (Table 4, read-out: syk IC50) it was 10 to 100 nM; in assay [6] it was 50000 nM.
On to `N#CCC(=O)N1CCCC(Nc2nc(Nc3ccc(C(N)=O)cc3)nc3[nH]ccc23)C1` (stereo not shown) [drawing 212], for which the IC50 in assay [1], in assay [2] and in assay [3] was 10 to 100 nM throughout.
Consider `CC(=O)N1CCN(c2ccc(Nc3nc(N4CCC(CN)CC4)c4cc[nH]c4n3)cc2)CC1` [Example 11, 1-(4-(4-(4-(4-(aminomethyl)piperidin-1-yl)-7H-pyrrolo[2,3-d]pyrimidin-2-ylamino)phenyl)piperazin-1-yl)ethanone], for which the concentration for half-maximal inhibition (IC50) in assay [5] (Table 4, read-out: syk IC50) was 1 to 10 nM; in assay [6], 5280 nM.
For the compound `CC(=O)N1CCN(c2ccc(Nc3ncc(F)c(N4CCC(CN)CC4)n3)cc2)CC1` [Example 18, 1-(4-(4-(4-(4-(aminomethyl)piperidin-1-yl)-5-fluoropyrimidin-2-ylamino)phenyl)piperazin-1-yl)ethanone], the IC50 in assay [5] (Table 4, read-out: syk IC50) is 10 to 100 nM; in assay [6], 195 nM.
For `N#Cc1c[nH]c2nc(Nc3ccc(S(N)(=O)=O)cc3)nc(NC3CC3)c12` [drawing 210], the IC50 in assay [1], in assay [2] and in assay [3] was 10 to 100 nM throughout.
Regarding `CC(=O)N1CCN(c2ccc(Nc3nc(N4CCC(CN)CC4)c4c(C#N)c[nH]c4n3)cc2)CC1` [Example 14, 2-(4-(4-acetylpiperazin-1-yl)phenylamino)-4-(4-(aminomethyl)piperidin-1-yl)-7H-pyrrolo[2,3-d]pyrimidine-5-carbonitrile], the IC50 in assay [5] (setting [9]) was 10 to 100 nM; in assay [5] (Table 4, read-out: syk IC50) it was 10 to 100 nM; in assay [6], 50000 nM.
For the compound `NCC1CCN(c2nc(Nc3ccc4c(c3)CCC(=O)N4)ncc2F)CC1` [Example 33, 6-(4-(4-(aminomethyl)piperidin-1-yl)-5-fluoropyrimidin-2-ylamino)-3,4-dihydroquinolin-2(1H)-one], the IC50 was 10 to 100 nM in assay [5] (Table 4, read-out: syk IC50) and 336 nM in assay [6].
Take `c1cc2c(NC3CC3)nc(Nc3ccc4cn[nH]c4c3)nc2[nH]1` [drawing 204]: the 50% inhibitory concentration (IC50) in assay [1], in assay [2] and in assay [3] was 100 to 1000 nM in each case.
As to `Cc1c[nH]c2nc(Nc3ccc4cn[nH]c4c3)nc(NC3CCC3)c12`, the IC50 in assay [1] is above 1000 nM; in assay [2], 100 to 1000 nM; in assay [3], 100 to 1000 nM.
Turning to `NCC1CCN(c2nc(Nc3ccc(C(N)=O)cc3)ncc2F)CC1` [Example 31, 4-(4-(4-(aminomethyl)piperidin-1-yl)-5-fluoropyrimidin-2-ylamino)benzamide], the half-inhibitory concentration (IC50) in assay [5] (Table 4, read-out: syk IC50) was 10 to 100 nM; in assay [6] it was 346 nM.
For `NCC1CCN(c2nc(Nc3ccc4cn[nH]c4c3)ncc2F)CC1` [Example 16, N-(4-(4-(aminomethyl)piperidin-1-yl)-5-fluoropyrimidin-2-yl)-1H-indazol-6-amine] the same measures were 10 to 100 nM and 296 nM.
In the case of `COc1cc(Nc2ncc(F)c(Nc3ccc4c(n3)NC(=O)C(C)(C)O4)n2)cc(OC)c1OC` [Example R406], the “Sensitivity to Syk inhibition by R406” value in assay [7] is recorded as “sensitive”. Also, the “Sensitivity to R406” value in assay [8] is “insensitive”.
Consider `NC(=O)c1c[nH]c2nc(Nc3ccc4c(c3)CCC(=O)N4)nc(NC3CC3)c12` [drawing 211], for which the 50% inhibitory concentration (IC50) in assay [1] is above 1000 nM; in assay [2], 100 to 1000 nM; in assay [3] it was above 1000 nM.
As for `c1cc2c(NC3CC3)nc(Nc3ccc4cn[nH]c4c3)nc2[nH]1` [drawing 213], at 0.3 µM the inhibition in assay [3] (10 μM ATP) was 41%. In addition, the inhibition at 1 µM in assay [3] (1 μM compound, 10 μM ATP) was determined as 77%.
